Test results as given in the NIST ThermoML archive (doi:10.1021/je034290l).
± gives the expanded uncertainty stated by the source.

Experiments:
[1] = xn = mol fraction of the nth substance listed; details: 101.32 kPa, Liquid
[2] = excess molar enthalpy (molar enthalpy of mixing); xn = mol fraction of the nth substance listed; details: 101.32 kPa, Liquid, Calvet calorimetry

COC(C)=O [methyl ethanoate] + CC(C)(C)O
excess molar volume ([1]; 303.15 K, x1 = 0.0451): 1.65e-07 ± 1.6e-08 m3/mol
excess molar volume ([1]; 303.15 K, x1 = 0.0901): 3.35e-07 ± 1.7e-08 m3/mol
excess molar volume ([1]; 303.15 K, x1 = 0.1537): 5.06e-07 ± 1.8e-08 m3/mol
excess molar volume ([1]; 303.15 K, x1 = 0.1973): 6.07e-07 ± 1.8e-08 m3/mol
excess molar volume ([1]; 303.15 K, x1 = 0.2481): 7.02e-07 ± 1.9e-08 m3/mol
excess molar volume ([1]; 303.15 K, x1 = 0.2631): 7.32e-07 ± 1.9e-08 m3/mol
excess molar volume ([1]; 303.15 K, x1 = 0.3042): 8.09e-07 ± 1.9e-08 m3/mol
excess molar volume ([1]; 303.15 K, x1 = 0.3448): 8.49e-07 ± 1.9e-08 m3/mol
excess molar volume ([1]; 303.15 K, x1 = 0.3957): 8.87e-07 ± 2e-08 m3/mol
excess molar volume ([1]; 303.15 K, x1 = 0.4411): 9.04e-07 ± 2e-08 m3/mol
excess molar volume ([1]; 303.15 K, x1 = 0.4445): 8.99e-07 ± 2e-08 m3/mol
excess molar volume ([1]; 303.15 K, x1 = 0.4964): 8.92e-07 ± 2e-08 m3/mol
excess molar volume ([1]; 303.15 K, x1 = 0.5515): 8.74e-07 ± 2e-08 m3/mol
excess molar volume ([1]; 303.15 K, x1 = 0.5677): 8.68e-07 ± 2e-08 m3/mol
excess molar volume ([1]; 303.15 K, x1 = 0.5954): 8.5e-07 ± 1.9e-08 m3/mol
excess molar volume ([1]; 303.15 K, x1 = 0.6467): 7.94e-07 ± 1.9e-08 m3/mol
excess molar volume ([1]; 303.15 K, x1 = 0.6956): 7.42e-07 ± 1.9e-08 m3/mol
excess molar volume ([1]; 303.15 K, x1 = 0.7432): 6.59e-07 ± 1.9e-08 m3/mol
excess molar volume ([1]; 303.15 K, x1 = 0.8016): 5.54e-07 ± 1.8e-08 m3/mol
excess molar volume ([1]; 303.15 K, x1 = 0.8477): 4.63e-07 ± 1.8e-08 m3/mol
excess molar volume ([1]; 303.15 K, x1 = 0.9067): 3.28e-07 ± 1.7e-08 m3/mol
excess molar volume ([1]; 303.15 K, x1 = 0.9465): 2.17e-07 ± 1.7e-08 m3/mol
excess molar volume ([1]; 318.15 K, x1 = 0.102): 3.93e-07 ± 1.7e-08 m3/mol
excess molar volume ([1]; 318.15 K, x1 = 0.165): 5.61e-07 ± 1.8e-08 m3/mol
excess molar volume ([1]; 318.15 K, x1 = 0.2168): 6.84e-07 ± 1.9e-08 m3/mol
excess molar volume ([1]; 318.15 K, x1 = 0.2804): 7.71e-07 ± 1.9e-08 m3/mol
excess molar volume ([1]; 318.15 K, x1 = 0.349): 8.76e-07 ± 2e-08 m3/mol
excess molar volume ([1]; 318.15 K, x1 = 0.4031): 9.16e-07 ± 2e-08 m3/mol
excess molar volume ([1]; 318.15 K, x1 = 0.4596): 9.41e-07 ± 2e-08 m3/mol
excess molar volume ([1]; 318.15 K, x1 = 0.5227): 9.15e-07 ± 2e-08 m3/mol
excess molar volume ([1]; 318.15 K, x1 = 0.5784): 8.91e-07 ± 2e-08 m3/mol
excess molar volume ([1]; 318.15 K, x1 = 0.6398): 8.5e-07 ± 1.9e-08 m3/mol
excess molar volume ([1]; 318.15 K, x1 = 0.6786): 8.06e-07 ± 1.9e-08 m3/mol
excess molar volume ([1]; 318.15 K, x1 = 0.7422): 7.18e-07 ± 1.9e-08 m3/mol
excess molar volume ([1]; 318.15 K, x1 = 0.7969): 5.7e-07 ± 1.8e-08 m3/mol
excess molar volume ([1]; 318.15 K, x1 = 0.8256): 5.31e-07 ± 1.8e-08 m3/mol
excess molar volume ([1]; 318.15 K, x1 = 0.9077): 3.01e-07 ± 1.7e-08 m3/mol
excess molar volume ([1]; 318.15 K, x1 = 0.9496): 1.86e-07 ± 1.6e-08 m3/mol
excess molar enthalpy ([2]; 299.15 K, x1 = 0.0671): 0.126 ± 0.00167 kcal/mol
excess molar enthalpy ([2]; 299.15 K, x1 = 0.1369): 0.238 ± 0.00311 kcal/mol
excess molar enthalpy ([2]; 299.15 K, x1 = 0.2113): 0.341 ± 0.0043 kcal/mol
excess molar enthalpy ([2]; 299.15 K, x1 = 0.2812): 0.417 ± 0.00526 kcal/mol
excess molar enthalpy ([2]; 299.15 K, x1 = 0.3492): 0.472 ± 0.00598 kcal/mol
excess molar enthalpy ([2]; 299.15 K, x1 = 0.4106): 0.504 ± 0.00621 kcal/mol
excess molar enthalpy ([2]; 299.15 K, x1 = 0.4675): 0.519 ± 0.00645 kcal/mol
excess molar enthalpy ([2]; 299.15 K, x1 = 0.4928): 0.522 ± 0.00645 kcal/mol
excess molar enthalpy ([2]; 299.15 K, x1 = 0.5304): 0.524 ± 0.00645 kcal/mol
excess molar enthalpy ([2]; 299.15 K, x1 = 0.5753): 0.517 ± 0.00645 kcal/mol
excess molar enthalpy ([2]; 299.15 K, x1 = 0.6226): 0.5 ± 0.00621 kcal/mol
excess molar enthalpy ([2]; 299.15 K, x1 = 0.6741): 0.47 ± 0.00598 kcal/mol
excess molar enthalpy ([2]; 299.15 K, x1 = 0.7293): 0.427 ± 0.00526 kcal/mol
excess molar enthalpy ([2]; 299.15 K, x1 = 0.7866): 0.368 ± 0.00454 kcal/mol
excess molar enthalpy ([2]; 299.15 K, x1 = 0.8439): 0.292 ± 0.00359 kcal/mol
excess molar enthalpy ([2]; 299.15 K, x1 = 0.9019): 0.201 ± 0.00263 kcal/mol
excess molar enthalpy ([2]; 299.15 K, x1 = 0.9551): 0.107 ± 0.00141 kcal/mol
excess molar enthalpy ([2]; 318.15 K, x1 = 0.071): 0.113 ± 0.00151 kcal/mol
excess molar enthalpy ([2]; 318.15 K, x1 = 0.1469): 0.216 ± 0.00263 kcal/mol
excess molar enthalpy ([2]; 318.15 K, x1 = 0.2304): 0.311 ± 0.00382 kcal/mol
excess molar enthalpy ([2]; 318.15 K, x1 = 0.3022): 0.382 ± 0.00478 kcal/mol
excess molar enthalpy ([2]; 318.15 K, x1 = 0.3713): 0.434 ± 0.0055 kcal/mol
excess molar enthalpy ([2]; 318.15 K, x1 = 0.4322): 0.471 ± 0.00598 kcal/mol
excess molar enthalpy ([2]; 318.15 K, x1 = 0.4898): 0.49 ± 0.00598 kcal/mol
excess molar enthalpy ([2]; 318.15 K, x1 = 0.5407): 0.492 ± 0.00621 kcal/mol
excess molar enthalpy ([2]; 318.15 K, x1 = 0.5865): 0.485 ± 0.00598 kcal/mol
excess molar enthalpy ([2]; 318.15 K, x1 = 0.6105): 0.475 ± 0.00598 kcal/mol
excess molar enthalpy ([2]; 318.15 K, x1 = 0.6585): 0.451 ± 0.00574 kcal/mol
excess molar enthalpy ([2]; 318.15 K, x1 = 0.711): 0.414 ± 0.00526 kcal/mol
excess molar enthalpy ([2]; 318.15 K, x1 = 0.7628): 0.367 ± 0.00454 kcal/mol
excess molar enthalpy ([2]; 318.15 K, x1 = 0.817): 0.308 ± 0.00382 kcal/mol
excess molar enthalpy ([2]; 318.15 K, x1 = 0.8636): 0.242 ± 0.00311 kcal/mol
excess molar enthalpy ([2]; 318.15 K, x1 = 0.9085): 0.174 ± 0.00237 kcal/mol
excess molar enthalpy ([2]; 318.15 K, x1 = 0.9567): 0.0889 ± 0.00148 kcal/mol
